Assay results reported in patent EP1000025B1, “SUBSTITUTED NAPHTHOPYRANS” (TRANSITIONS OPTICAL, INC., priority 1997, dated 1998).

Assay: Photochromic response of test square polymerizates on an optical bench
Format: physicochemical
Settings: for ΔOD@ SATURATION: UV exposure continued for 20 minutes; for ΔOD@ SATURATION / ΔOD/MIN SENSITIVITY: test squares by method 1, 75°F (23.9°C); for ΔOD/MIN SENSITIVITY: measured over the first five (5) seconds of UV exposure, expressed on a per minute basis; for Bleach (T1/2): time for absorbance of the activated form to reach one half the highest absorbance at room temperature (75°F, 23.9°C) after removal of activating light, method 1; for LAMBDA MAX (VISIBLE): wavelength in the visible spectrum of maximum absorption of the activated (colored) form, diethylene glycol bis(allyl carbonate) composition
Description: Testing was done with the photochromic naphthopyrans of the Examples incorporated or imbibed into test square polymerizates by one of two different methods. In Method I, the photochromic naphthopyrans of the Examples were incorporated into polymeric samples. The quantity of naphthopyran calculated to yield a 1.5 times 10^-3 molal solution was added to a flask containing 50 grams of a monomer blend of 4 parts ethoxylated bisphenol A dimethacrylate (BPA 2EO DMA), 1 part poly(ethyleneglycol) 600 dimethacrylate, and 0.033 weight percent 2,2'-azobis(2-methyl propionitrile) (AIBN). The naphthopyrans were dissolved into the monomer blend by stirring and gentle heating, if necessary. After a clear solution was obtained, it was poured into a flat sheet mold having the interior dimensions of 2.2 mm x 6 inches (15.24 cm) x 6 inches (15.24 cm). The mold was sealed and placed in a horizontal air flow, programmable oven set to increase the temperature from 40°C. to 95°C. over a 5 hour interval, hold the temperature at 95°C. for 3 hours and then lower it to 60°C. for at least 2 hours before the end of the curing cycle. After the molds were opened, the polymer sheets were cut using a diamond blade saw into 2 inch (5.1 centimeters) test squares.
In Method II, the photochromic naphthopyran was imbibed into test square polymerizates prepared from a diethylene glycol bis(allyl carbonate) composition. The test squares measured 1/8 inch (0.3 centimeters) x 2 inches (5.1 centimeters) x 2 inches (5.1 centimeters). In the imbibition process, the photochromic naphthopyran was dissolved to form a 10 weight percent solution in a 1:9 mixture of ethyl cellulose:toluene. The solution was then spin coated onto the test squares and allowed to dry. Samples were then heated in a hot-air oven at 135-155°C for a period of time sufficient to thermally transfer the photochromic into the test squares. […] After cooling, the ethyl cellulose/toluene resin film was removed from the test squares by washing with acetone.
The photochromic test squares were tested for photochromic response rates on an optical bench. Prior to testing on the optical bench, the photochromic test squares were exposed to 365 nanometer ultraviolet light for about 15 minutes to activate the photochromic compounds and then placed into a 76°C oven for about 15 minutes to bleach or inactivate the photochromic compounds. The test squares were then cooled to room temperature, exposed to fluorescent room lighting for at least 2 hours and then kept covered for at least 2 hours prior to testing on an optical bench maintained at 75°F (23.9°C). The bench was fitted with a 150 watt Xenon arc lamp, a remote controlled shutter, a copper sulfate bath acting as a heat sink for the arc lamp, a Schott WG-320 nm cut-off filter which removes short wavelength radiation; neutral density filter(s) and a sample holder in which the square to be tested was inserted. A collimated beam of light from a tungsten lamp was passed through the square at a small angle normal to the square. After passing through the square, the light from the tungsten lamp was directed through a photopic filter attached to a detector. The photopic filter passes wavelengths such that the detector mimics the response of the human eye. The output signals from the detector(s) were processed by a radiometer.
Change in optical density (ΔOD) was determined by inserting a test square in the bleached state into the sample holder, adjusting the transmittance scale to 100%, opening the shutter from the Xenon lamp to provide ultraviolet radiation to change the test square from the bleached state to an activated (i.e., darkened) state, measuring the transmittance in the activated state, and calculating the change in optical density according to the formula Δ OD=log(100/%Ta) where %Ta is the percent transmittance in the activated state and the logarithm is to the base 10. […]

Structure (SMILES)	ΔOD@ SATURATION	ΔOD/MIN SENSITIVITY	Bleach (T1/2) [min]	LAMBDA MAX (VISIBLE)
COC(=O)c1c2c(c3ccccc3c1O)OC(c1ccccc1)(c1ccc(N3CCOCC3)cc1)C=C2 (stereo not drawn) [Example 1, 2-(4-morpholinophenyl)-2-phenyl-5-methoxycarbonyl-6-hydroxy-2H-naphtho[1,2-b]pyran]	1.36	0.64	3.22	511
COC(=O)c1c2c(c3ccccc3c1OC)OC(c1ccccc1)(c1ccc(N3CCOCC3)cc1)C=C2 (stereo not drawn) [Example 2, 2-(4-morpholinophenyl)-2-phenyl-5-methoxycarbonyl-6-methoxy-2H-naphtho[1,2-b]pyran]	0.95	0.29	4.87	541
COC(=O)c1c2c(c3ccccc3c1OC(C)=O)OC(c1ccccc1)(c1ccc(N3CCOCC3)cc1)C=C2 (stereo not drawn) [Example 3, 2-(4-morpholinophenyl)-2-phenyl-5-methoxycarbonyl-6-acetoxy-2H-naphtho[1,2-b]pyran]	0.31	0.24	1.47	545
COC(=O)c1c2c(c3ccccc3c1OC(C)=O)OC(c1ccccc1)(c1ccc(N(C)C)cc1)C=C2 (stereo not drawn) [Example 4, 2-(4-dimethylaminophenyl)-2-phenyl-5-methoxycarbonyl-6-acetoxy-2H-naphtho[1,2-b]pyran]	0.30	0.27	1.17	591
COC(=O)c1c2c(c3ccccc3c1C)OC(c1ccccc1)(c1ccc(N(C)C)cc1)C=C2 (stereo not drawn) [Example 5, 2-(4-dimethylaminophenyl)-2-phenyl-5-methoxycarbonyl-6-methyl-2H-naphtho[1,2-b]pyran]	0.51	0.20	3.33	584
COC(=O)c1c2c(c3ccccc3c1OC(C)=O)OC(c1ccc(N(C)C)cc1)(c1ccc(N(C)C)cc1)C=C2 [Example 6, 2,2-bis(4-dimethylaminophenyl)-5-methoxycarbonyl-6-acetoxy-2H-naphtho[1,2-b]pyran]	0.07	0.16	0.317	618
